Molecules are shown by their SMILES.

For this assay, the target named is T1, hFXR (Homo sapiens, UniProt Q96RI1).
T1 construct: expressed in transfected cells; host or cells: CV-1 cells
T1 sequence (Q96RI1 1-486): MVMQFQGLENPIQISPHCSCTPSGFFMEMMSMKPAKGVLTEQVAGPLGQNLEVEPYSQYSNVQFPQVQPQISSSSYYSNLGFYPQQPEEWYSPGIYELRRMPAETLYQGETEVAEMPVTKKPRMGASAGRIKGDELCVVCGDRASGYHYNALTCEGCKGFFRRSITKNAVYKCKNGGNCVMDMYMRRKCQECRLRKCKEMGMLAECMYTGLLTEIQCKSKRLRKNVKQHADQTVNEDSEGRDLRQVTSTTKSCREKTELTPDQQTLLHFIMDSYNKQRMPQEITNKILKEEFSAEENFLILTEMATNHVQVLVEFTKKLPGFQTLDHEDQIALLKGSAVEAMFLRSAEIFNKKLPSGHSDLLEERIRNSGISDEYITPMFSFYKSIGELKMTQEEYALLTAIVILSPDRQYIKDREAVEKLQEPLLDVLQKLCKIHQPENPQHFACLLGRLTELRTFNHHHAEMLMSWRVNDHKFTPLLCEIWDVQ
T1 sequence (P19793 1-462 partner): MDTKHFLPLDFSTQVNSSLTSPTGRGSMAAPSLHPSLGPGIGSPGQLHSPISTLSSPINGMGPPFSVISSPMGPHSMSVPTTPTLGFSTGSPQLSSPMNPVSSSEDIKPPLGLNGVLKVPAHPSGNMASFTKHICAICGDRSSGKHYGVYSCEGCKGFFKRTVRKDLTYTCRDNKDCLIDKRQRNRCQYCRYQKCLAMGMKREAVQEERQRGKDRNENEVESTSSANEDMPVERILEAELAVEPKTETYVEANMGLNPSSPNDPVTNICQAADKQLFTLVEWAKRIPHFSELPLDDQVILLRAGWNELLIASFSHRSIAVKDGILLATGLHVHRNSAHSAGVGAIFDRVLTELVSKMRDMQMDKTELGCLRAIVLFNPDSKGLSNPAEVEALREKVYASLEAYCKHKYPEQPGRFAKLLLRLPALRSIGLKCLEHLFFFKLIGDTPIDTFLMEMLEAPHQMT
Description: In Vitro FXR Assay (TK): TK-ECRE-luc reporter in transfected CV-1 cells. To be noted: 18 hrs, luminescence, maximum efficacy of <25% of the Fexarmine control classified as '+'. The assay is classed as cell-based. In outline:
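Reporter transactivation by hFXR was measured in CV-1 cells carrying hRXR and a TK-ECRE-luc construct, with compound treatment for 18 h before lysis and luminescence detection.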

In turn, `COC(=O)[C@H]1CC[C@H](C(=O)N(C[C@H]2CC[C@H](c3ccc(N(C)C)nc3)CC2)c2cccc(-c3cnn(C4CC4)c3)c2)CC1` [Compound 18.14, trans-Methyl 4-((3-(1-cyclopropyl-1H-pyrazol-4-yl)phenyl)((trans-4-(6-(dimethylamino)pyridin-3-yl)cyclohexyl)methyl)carbamoyl) cyclohexanecarboxylate] returned an EC50 of at most 250 nM. In turn, `CNC(=O)O[C@H]1CC[C@H](C(=O)N(C[C@H]2CC[C@H](c3ccc(OC)c(C#N)c3)CC2)c2cc(-c3coc(C(C)C)n3)ccn2)CC1` [Compound 5.45, trans-4-(((trans-4-(3-Cyano-4-methoxyphenyl)cyclohexyl)methyl)(4-(2-isopropyloxazol-4-yl)pyridine-2-yl)carbamoyl)cyclohexyl methylcarbamate] registered an EC50 of at most 250 nM. The same measure for `COc1ccc([C@H]2CC[C@H](CN(c3cccc(-c4cnc(C5CC5)s4)c3)C(=O)[C@H]3CC[C@H](NC(=O)C4CN(C)C4)CC3)CC2)cc1C` [Compound 27.05, N-(trans-4-((3-(2-Cyclopropylthiazol-5-yl)phenyl)((trans-4-(4-methoxy-3-methylphenyl)cyclohexyl)methyl)carbamoyl)cyclohexyl)-1-methylazetidine-3-carboxamide]: at least 1000 nM; for `CNC(=O)O[C@H]1CC[C@H](C(=O)N(C[C@H]2CC[C@H](c3ccc(OC)c(C)c3)CC2)c2cccc(-c3cnc(N(C)C)nc3)c2)CC1` [Compound 5.38, trans-4-((3-(2-(Dimethylamino)pyrimidin-5-yl)phenyl)((trans-4-(4-methoxy-3-methylphenyl)cyclohexyl)methyl)carbamoyl)cyclohexyl methylcarbamate]: at most 250 nM. For `COc1ccc([C@H]2CC[C@H](CN(c3cc(-c4coc(C5CC5)n4)ccn3)C(=O)[C@H]3CC[C@H](OC(=O)N4CC(O)C4)CC3)CC2)nc1C#N` [Compound 7.72, trans-4-(((trans-4-(6-Cyano-5-methoxypyridin-2-yl)cyclohexyl)methyl)(4-(2-cyclopropyloxazol-4-yl)pyridine-2-yl)carbamoyl)cyclohexyl 3-hydroxyazetidine-1-carboxylate] the value was at most 250 nM; for `COc1ccc(C23CCC(CN(c4cc(-c5coc(C6CC6)n5)ccn4)C(=O)[C@H]4CC[C@H](CC(=O)O)CC4)(CC2)CC3)cc1C` [Compound 21, trans-2-(4-((4-(2-Cyclopropyloxazol-4-yl)pyridin-2-yl)((4-(4-methoxy-3-methylphenyl)bicyclo[2.2.2]octan-1-yl)methyl)carbamoyl)cyclohexyl) acetic acid], at most 250 nM; for `COc1ccc([C@H]2CC[C@H](CN(c3cc(-c4coc(C5CC5)n4)ccn3)C(=O)[C@H]3CC[C@H](OC(=O)N4CC(S(C)(=O)=O)C4)CC3)CC2)nc1C` [Compound 6.61], at most 250 nM.

On to `COc1ccc([C@H]2CC[C@H](CN(c3cc(-c4coc(C5CC5)n4)ccn3)C(=O)[C@H]3CC[C@H](OC(=O)N4CCN(C)CC4)CC3)CC2)nc1C` [Compound 6.65, trans-4-((4-(2-Cyclopropyloxazol-4-yl)pyridine-2-yl)((trans-4-(5-methoxy-6-methylpyridin-2-yl)cyclohexyl)methyl)carbamoyl)cyclohexyl 4-methylpiperazine-1-carboxylate], for which the 50% effective concentration (EC50) is at most 250 nM.

`COc1ccc([C@H]2CC[C@H](CN(c3cccc(-c4cnc(C5CC5)s4)c3)C(=O)[C@H]3CC[C@H](NC(=O)COC(C)=O)CC3)CC2)cc1C` [Compound 25.13, 2-((trans-4-((3-(2-Cyclopropylthiazol-5-yl)phenyl)((trans-4-(4-methoxy-3-methylphenyl)cyclohexyl)methyl)carbamoyl)cyclohexyl)amino)-2-oxoethyl acetate] gave a concentration giving a half-maximal response (EC50) of at most 250 nM.

`COc1ccc([C@H]2CC[C@H](CN(c3cc(-c4cnc(C5CC5)s4)ccn3)C(=O)[C@H]3CC[C@H](OC(=O)NCCO)CC3)CC2)cc1C` [Compound 6.02, trans-4-((4-(2-Cyclopropylthiazol-5-yl)pyridin-2-yl)((trans-4-(4-methoxy-3-methylphenyl)cyclohexyl)methyl)carbamoyl)cyclohexyl (2-hydroxyethyl) carbamate] returned an EC50 of at most 250 nM. The molecule `COc1ccc([C@H]2CC[C@H](CN(c3cccc(-c4coc(C5CC5)n4)c3)C(=O)[C@H]3CC[C@H](C(=O)O)CC3)CC2)nc1C#N` [Compound 18.05, trans-4-(((trans-4-(6-Cyano-5-methoxypyridin-2-yl)cyclohexyl)methyl)(3-(2-cyclopropyloxazol-4-yl)phenyl)carbamoyl) cyclohexanecarboxylic acid] registered a concentration for a half-maximal effect (EC50) of at most 250 nM. The same measure for `COc1ccc([C@H]2CC[C@H](CN(c3cccc(-c4cnc(C5CC5)s4)c3)C(=O)[C@H]3CC[C@H](NC(=O)COCCCO)CC3)CC2)cc1C` [Compound 32.03, trans-N-(3-(2-Cyclopropylthiazol-5-yl)phenyl)-4-(2-(3-hydroxypropoxy)acetamido)-N-((trans-4-(4-methoxy-3-methylphenyl)cyclohexyl)methyl)cyclohexanecarboxamide]: at most 250 nM. For `COc1ccc([C@H]2CC[C@H](CN(c3cccc(-c4cnc(C5CC5)s4)c3)C(=O)[C@H]3CC[C@H](NC(=O)CN(C)C)CC3)CC2)cc1C` [Compound 31.06, trans-N-(3-(2-Cyclopropylthiazol-5-yl)phenyl)-4-(2-(dimethylamino)acetamido)-N-((trans-4-(4-methoxy-3-methylphenyl)cyclohexyl)methyl)cyclohexanecarboxamide] the value was at most 250 nM; for `Cn1nc(F)c2cc([C@H]3CC[C@H](CN(c4cccc(-c5cnc(C6CC6)s5)c4)C(=O)[C@H]4CC[C@H](C(=O)O)CC4)CC3)ccc21` [Compound 17.04, trans-4-((3-(2-Cyclopropylthiazol-5-yl)phenyl)((trans-4-(3-fluoro-1-methyl-1H-indazol-5-yl)cyclohexyl)methyl)carbamoyl) cyclohexanecarboxylic acid], at most 250 nM. For `COc1ccc([C@H]2CC[C@H](CN(c3cccc(-c4cnn(C5CC5)c4)c3)C(=O)[C@H]3CC[C@H](CC(=O)O)CC3)CC2)cc1C#N` [Compound 20.11, 2-(trans-4-(((trans-4-(3-Cyano-4-methoxyphenyl)cyclohexyl)methyl)(3-(1-cyclopropyl-1H-pyrazol-4-yl)phenyl)carbamoyl)cyclohexyl)acetic acid] the value was at most 250 nM; for `COc1ccc([C@H]2CC[C@H](CN(c3cc(-c4coc(C5CC5)n4)ccn3)C(=O)[C@H]3CC[C@H](OC(=O)N(C)C)CC3)CC2)nc1C` [Compound 7.78, trans-4-((4-(2-Cyclopropyloxazol-4-yl)pyridine-2-yl)((trans-4-(5-methoxy-6-methylpyridin-2-yl)cyclohexyl)methyl)carbamoyl)cyclohexyl dimethylcarbamate], at most 250 nM; for `COc1ccc(C23CCC(CN(c4cccc(-c5cnc(C6CC6)s5)c4)C(=O)[C@H]4CC[C@H](OC(=O)NCCO)CC4)(CC2)CC3)cc1C` [Compound 4.02, 4-((3-(2-Cyclopropylthiazol-5-yl)phenyl)((4-(4-methoxy-3-methylphenyl)bicyclo[2.2.2]octan-1-yl)methyl)carbamoyl)cyclohexyl (2-hydroxyethyl)trans-carbamate], at most 250 nM. The molecule `COc1ccc([C@H]2CC[C@H](CN(c3cccc(-c4cnn(C5CC5)c4)c3)C(=O)[C@H]3CC[C@H](OC(=O)N4CCS(=O)(=O)CC4)CC3)CC2)cc1C` [Compound 7.30, trans-4-((3-(1-Cyclopropyl-1H-pyrazol-4-yl)phenyl)((trans-4-(4-methoxy-3-methylphenyl)cyclohexyl)methyl)carbamoyl)cyclohexyl thiomorpholine-4-carboxylate1,1-dioxide] came in with an EC50 of at most 250 nM.

`COc1ccc(C23CCC(CN(c4cccc(-c5cnn(C6CC6)c5)c4)C(=O)[C@H]4CC[C@H](OC(=O)NCCO)CC4)(CC2)CC3)cc1C` [Compound 4.04, 4-((3-(1-Cyclopropyl-1H-pyrazol-4-yl)phenyl)((4-(4-methoxy-3-methylphenyl)bicyclo[2.2.2]octan-1-yl)methyl)carbamoyl)cyclohexyl (2-hydroxyethyl)trans-carbamate]: the EC50 is at most 250 nM. The molecule `COc1ccc([C@H]2CC[C@H](CN(c3cccc(-c4coc(C(C)C)n4)c3)C(=O)[C@H]3CC[C@H](OC(=O)NCCO)CC3)CC2)cc1C` [Compound 6.47, trans-4-((3-(2-Isopropyloxazol-4-yl)phenyl)((trans-4-(4-methoxy-3-methylphenyl)cyclohexyl)methyl)carbamoyl)cyclohexyl (2-hydroxyethyl) carbamate] had a half-maximal effective concentration (EC50) of at most 250 nM.
